How the values were obtained:
Format in all cases: binding
Imidazoline I2, Central = details: 10 μM; rat
[1] = molecular target: Seritonin (5-Hydroxytryptamine) 5-HT2B (Homo sapiens, UniProt P41595); details: for % Inhibition: 10 μM
Rolipram = details: 10 μM; rat
Potassium Channel (KATP) = Potassium Channel (KATP) (Cricetus cricetus, UniProt Q09427); details: hamster; for % Inhibition: 10 μM
[2] = test system: Glutamate, NMDA, Phencyclidine; details: 10 μM; rat
[3] = molecular target: Nicotinic Acetylcholine a1, Bungarotoxin (Homo sapiens, UniProt P02708+P07510+Q07001); details: for % Inhibition: 10 μM, human
Nicotinic Acetylcholine = details: 10 μM; human
Histamine, H1 = Histamine, H1 (Homo sapiens, UniProt P35367); details: for % Inhibition: 10 μM
Histamine, H1, sequence (P35367 whole entry): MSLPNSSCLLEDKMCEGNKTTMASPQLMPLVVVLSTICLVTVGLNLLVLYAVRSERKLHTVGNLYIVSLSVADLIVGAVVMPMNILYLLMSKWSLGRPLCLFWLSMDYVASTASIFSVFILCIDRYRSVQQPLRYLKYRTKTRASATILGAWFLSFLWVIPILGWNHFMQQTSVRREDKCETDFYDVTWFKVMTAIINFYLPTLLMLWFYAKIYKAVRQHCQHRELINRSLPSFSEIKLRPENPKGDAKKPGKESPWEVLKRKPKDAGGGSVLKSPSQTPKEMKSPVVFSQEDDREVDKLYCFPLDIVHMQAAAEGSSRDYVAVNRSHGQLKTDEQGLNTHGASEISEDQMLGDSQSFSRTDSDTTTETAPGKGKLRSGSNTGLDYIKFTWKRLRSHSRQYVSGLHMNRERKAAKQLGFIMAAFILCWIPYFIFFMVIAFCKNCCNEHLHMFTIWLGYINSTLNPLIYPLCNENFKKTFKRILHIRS

Adrenergic α1A = molecular target: T1, Adrenergic α1A (Rattus norvegicus, UniProt P43140); details: for % Inhibition: 10 μM
T1 sequence (P43140 1-466): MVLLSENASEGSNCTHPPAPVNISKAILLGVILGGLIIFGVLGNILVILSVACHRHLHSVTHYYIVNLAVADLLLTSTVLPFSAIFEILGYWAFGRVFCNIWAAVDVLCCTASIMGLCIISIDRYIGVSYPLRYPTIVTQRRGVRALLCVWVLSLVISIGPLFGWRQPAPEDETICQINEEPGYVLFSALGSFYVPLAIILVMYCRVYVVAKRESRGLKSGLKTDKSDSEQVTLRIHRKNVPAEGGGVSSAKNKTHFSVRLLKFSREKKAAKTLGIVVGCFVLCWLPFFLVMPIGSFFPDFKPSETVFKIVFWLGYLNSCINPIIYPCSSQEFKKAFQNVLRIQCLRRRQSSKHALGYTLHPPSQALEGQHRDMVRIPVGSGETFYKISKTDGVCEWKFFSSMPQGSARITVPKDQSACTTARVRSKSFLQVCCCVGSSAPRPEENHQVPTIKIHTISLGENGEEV

Sodium Channel, Site 2 = details: 10 μM; rat
GABAA, Muscimol, Central = details: 10 μM; rat
Phorbol Ester = details: 10 μM; mouse
Dopamine D1 = Dopamine D1 (Homo sapiens, UniProt P21728); details: for % Inhibition: 10 μM
Opiate μ(OP3, MOP) = Opiate μ(OP3, MOP) (Homo sapiens, UniProt P35372); details: for % Inhibition: 10 μM
Opiate μ(OP3, MOP), sequence (P35372 whole entry): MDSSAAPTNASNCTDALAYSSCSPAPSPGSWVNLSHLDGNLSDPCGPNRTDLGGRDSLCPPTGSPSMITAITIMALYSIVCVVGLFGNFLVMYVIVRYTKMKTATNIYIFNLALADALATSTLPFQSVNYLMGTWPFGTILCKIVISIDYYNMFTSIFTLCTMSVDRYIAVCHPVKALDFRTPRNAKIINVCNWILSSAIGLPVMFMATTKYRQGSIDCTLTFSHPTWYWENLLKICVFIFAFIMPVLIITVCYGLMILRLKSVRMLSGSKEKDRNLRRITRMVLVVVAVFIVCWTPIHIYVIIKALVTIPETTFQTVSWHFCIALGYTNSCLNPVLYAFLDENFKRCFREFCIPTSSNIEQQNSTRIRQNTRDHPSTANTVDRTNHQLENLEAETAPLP

Dopamine D2s = Dopamine D2s (Homo sapiens, UniProt P14416); details: for % Inhibition: 10 μM
Dopamine D2s, sequence (P14416 1-414 isoform P14416-2): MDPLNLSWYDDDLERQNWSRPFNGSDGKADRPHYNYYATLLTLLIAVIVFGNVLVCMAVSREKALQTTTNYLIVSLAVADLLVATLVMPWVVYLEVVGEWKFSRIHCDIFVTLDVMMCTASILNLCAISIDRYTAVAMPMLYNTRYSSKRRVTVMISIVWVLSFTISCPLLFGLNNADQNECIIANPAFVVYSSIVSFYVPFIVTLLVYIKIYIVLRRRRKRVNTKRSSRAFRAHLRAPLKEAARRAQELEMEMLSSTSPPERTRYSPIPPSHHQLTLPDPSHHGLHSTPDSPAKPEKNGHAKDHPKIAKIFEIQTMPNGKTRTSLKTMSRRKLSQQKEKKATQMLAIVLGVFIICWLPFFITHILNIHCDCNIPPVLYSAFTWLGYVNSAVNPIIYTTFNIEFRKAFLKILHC

Adrenergic β2 = Adrenergic β2 (Homo sapiens, UniProt P07550); details: for % Inhibition: 10 μM
Adrenergic β2, sequence (P07550 whole entry): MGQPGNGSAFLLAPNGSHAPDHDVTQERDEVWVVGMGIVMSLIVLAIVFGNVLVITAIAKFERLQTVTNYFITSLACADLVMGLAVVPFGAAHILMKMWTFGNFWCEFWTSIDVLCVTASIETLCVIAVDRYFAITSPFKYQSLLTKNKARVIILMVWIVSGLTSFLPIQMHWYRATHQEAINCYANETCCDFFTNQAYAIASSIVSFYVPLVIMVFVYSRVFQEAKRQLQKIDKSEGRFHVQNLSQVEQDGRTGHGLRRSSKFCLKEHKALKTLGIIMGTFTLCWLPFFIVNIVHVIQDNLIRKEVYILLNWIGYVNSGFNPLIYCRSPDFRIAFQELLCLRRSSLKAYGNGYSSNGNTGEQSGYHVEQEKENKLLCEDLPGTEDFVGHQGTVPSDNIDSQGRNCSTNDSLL

Prostanoid EP4 = Prostanoid EP4 (Homo sapiens, UniProt P35408); details: for % Inhibition: 10 μM
Prostanoid EP4, sequence (P35408 whole entry): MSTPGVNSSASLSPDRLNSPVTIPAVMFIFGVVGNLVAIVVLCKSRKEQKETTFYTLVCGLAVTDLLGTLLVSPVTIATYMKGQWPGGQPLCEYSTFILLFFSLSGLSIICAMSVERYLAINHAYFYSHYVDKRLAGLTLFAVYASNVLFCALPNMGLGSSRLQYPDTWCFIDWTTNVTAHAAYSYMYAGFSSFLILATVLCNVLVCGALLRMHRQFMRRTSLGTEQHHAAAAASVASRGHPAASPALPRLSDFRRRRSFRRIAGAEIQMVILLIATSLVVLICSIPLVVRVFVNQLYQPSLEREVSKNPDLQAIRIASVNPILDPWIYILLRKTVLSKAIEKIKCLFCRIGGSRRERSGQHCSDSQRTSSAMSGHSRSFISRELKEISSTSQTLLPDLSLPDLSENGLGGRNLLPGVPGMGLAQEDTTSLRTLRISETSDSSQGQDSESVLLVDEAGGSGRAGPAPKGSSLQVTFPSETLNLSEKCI

Adrenergic β1 = Adrenergic β1 (Homo sapiens, UniProt P08588); details: for % Inhibition: 10 μM
Adrenergic β1, sequence (P08588 whole entry): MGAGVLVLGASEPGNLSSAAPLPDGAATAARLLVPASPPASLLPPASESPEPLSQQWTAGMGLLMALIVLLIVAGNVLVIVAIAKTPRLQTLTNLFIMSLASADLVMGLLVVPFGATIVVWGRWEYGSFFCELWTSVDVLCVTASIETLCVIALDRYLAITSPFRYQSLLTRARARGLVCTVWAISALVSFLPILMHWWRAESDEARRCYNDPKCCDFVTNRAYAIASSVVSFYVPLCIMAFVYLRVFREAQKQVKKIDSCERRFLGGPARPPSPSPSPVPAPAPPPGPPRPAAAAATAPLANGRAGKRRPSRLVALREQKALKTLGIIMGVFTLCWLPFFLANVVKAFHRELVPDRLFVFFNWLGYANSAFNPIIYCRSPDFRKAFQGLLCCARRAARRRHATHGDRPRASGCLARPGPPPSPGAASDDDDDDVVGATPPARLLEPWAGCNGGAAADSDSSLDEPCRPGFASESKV

Adenosine A2A = Adenosine A2A (Homo sapiens, UniProt P29274); details: for % Inhibition: 10 μM
Sigma σ1 = Sigma σ1 (Homo sapiens, UniProt Q99720); details: for % Inhibition: 10 μM
Sigma σ1, sequence (Q99720 whole entry): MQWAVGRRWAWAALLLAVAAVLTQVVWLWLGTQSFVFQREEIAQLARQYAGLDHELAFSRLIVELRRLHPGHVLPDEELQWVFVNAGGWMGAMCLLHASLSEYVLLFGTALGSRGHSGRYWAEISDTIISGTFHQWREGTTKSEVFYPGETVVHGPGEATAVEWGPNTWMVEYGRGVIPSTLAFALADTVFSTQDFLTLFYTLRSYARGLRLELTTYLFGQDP

Muscarinic M3 = Muscarinic M3 (Homo sapiens, UniProt P20309); details: for % Inhibition: 10 μM
Adrenergic α2A = molecular target: T2, Adrenergic α2A (Homo sapiens, UniProt P08913); details: for % Inhibition: 10 μM
T2 sequence (P08913 1-465): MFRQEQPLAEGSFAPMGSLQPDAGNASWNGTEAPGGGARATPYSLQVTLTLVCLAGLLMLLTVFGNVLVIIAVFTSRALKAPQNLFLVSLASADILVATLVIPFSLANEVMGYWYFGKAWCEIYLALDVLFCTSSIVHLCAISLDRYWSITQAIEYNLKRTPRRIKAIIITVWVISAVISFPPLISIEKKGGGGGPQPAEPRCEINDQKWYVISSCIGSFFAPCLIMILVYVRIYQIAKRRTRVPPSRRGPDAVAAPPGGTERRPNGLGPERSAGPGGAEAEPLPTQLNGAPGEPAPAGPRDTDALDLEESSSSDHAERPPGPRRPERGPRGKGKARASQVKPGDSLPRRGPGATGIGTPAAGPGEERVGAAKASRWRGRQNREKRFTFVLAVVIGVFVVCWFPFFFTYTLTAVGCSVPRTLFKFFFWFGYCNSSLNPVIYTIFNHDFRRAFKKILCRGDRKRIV

[4] = molecular target: Transporter, Norepinephrine (NET) (Homo sapiens, UniProt P23975); details: for % Inhibition: 10 μM
Muscarinic M2 = molecular target: T3, Muscarinic M2 (Homo sapiens, UniProt P08172); details: for % Inhibition: 10 μM
T3 sequence (P08172 1-466): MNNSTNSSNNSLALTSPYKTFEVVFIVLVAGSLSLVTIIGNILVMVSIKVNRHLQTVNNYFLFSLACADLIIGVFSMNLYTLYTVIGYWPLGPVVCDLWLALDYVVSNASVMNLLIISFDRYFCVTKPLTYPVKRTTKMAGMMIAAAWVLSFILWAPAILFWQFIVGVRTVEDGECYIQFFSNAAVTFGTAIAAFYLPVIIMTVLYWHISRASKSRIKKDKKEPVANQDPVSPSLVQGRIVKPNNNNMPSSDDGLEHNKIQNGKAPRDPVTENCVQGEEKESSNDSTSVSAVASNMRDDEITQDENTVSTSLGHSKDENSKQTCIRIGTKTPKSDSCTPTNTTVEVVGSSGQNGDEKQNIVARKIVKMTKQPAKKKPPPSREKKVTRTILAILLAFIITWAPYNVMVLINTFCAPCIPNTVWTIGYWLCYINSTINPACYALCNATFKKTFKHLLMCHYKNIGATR

[5] = test system: GABAA, Flunitrazepam, Central; details: 10 μM; rat

Seritonin (5-Hydroxytryptamine) 5-HT2B, sequence (P41595 whole entry): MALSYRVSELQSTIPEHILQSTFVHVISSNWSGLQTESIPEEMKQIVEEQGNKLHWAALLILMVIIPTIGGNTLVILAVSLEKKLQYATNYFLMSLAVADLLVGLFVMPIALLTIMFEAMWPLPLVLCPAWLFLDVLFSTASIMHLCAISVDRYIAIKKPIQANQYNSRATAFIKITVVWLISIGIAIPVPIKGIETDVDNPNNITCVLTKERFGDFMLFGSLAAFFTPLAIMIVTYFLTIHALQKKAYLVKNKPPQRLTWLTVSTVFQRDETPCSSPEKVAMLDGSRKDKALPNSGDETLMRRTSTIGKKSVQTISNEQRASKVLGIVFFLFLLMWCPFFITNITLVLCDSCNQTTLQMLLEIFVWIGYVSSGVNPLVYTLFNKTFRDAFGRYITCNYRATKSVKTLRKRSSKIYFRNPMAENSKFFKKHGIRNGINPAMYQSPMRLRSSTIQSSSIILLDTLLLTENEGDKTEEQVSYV
Potassium Channel (KATP), sequence (Q09427 whole entry): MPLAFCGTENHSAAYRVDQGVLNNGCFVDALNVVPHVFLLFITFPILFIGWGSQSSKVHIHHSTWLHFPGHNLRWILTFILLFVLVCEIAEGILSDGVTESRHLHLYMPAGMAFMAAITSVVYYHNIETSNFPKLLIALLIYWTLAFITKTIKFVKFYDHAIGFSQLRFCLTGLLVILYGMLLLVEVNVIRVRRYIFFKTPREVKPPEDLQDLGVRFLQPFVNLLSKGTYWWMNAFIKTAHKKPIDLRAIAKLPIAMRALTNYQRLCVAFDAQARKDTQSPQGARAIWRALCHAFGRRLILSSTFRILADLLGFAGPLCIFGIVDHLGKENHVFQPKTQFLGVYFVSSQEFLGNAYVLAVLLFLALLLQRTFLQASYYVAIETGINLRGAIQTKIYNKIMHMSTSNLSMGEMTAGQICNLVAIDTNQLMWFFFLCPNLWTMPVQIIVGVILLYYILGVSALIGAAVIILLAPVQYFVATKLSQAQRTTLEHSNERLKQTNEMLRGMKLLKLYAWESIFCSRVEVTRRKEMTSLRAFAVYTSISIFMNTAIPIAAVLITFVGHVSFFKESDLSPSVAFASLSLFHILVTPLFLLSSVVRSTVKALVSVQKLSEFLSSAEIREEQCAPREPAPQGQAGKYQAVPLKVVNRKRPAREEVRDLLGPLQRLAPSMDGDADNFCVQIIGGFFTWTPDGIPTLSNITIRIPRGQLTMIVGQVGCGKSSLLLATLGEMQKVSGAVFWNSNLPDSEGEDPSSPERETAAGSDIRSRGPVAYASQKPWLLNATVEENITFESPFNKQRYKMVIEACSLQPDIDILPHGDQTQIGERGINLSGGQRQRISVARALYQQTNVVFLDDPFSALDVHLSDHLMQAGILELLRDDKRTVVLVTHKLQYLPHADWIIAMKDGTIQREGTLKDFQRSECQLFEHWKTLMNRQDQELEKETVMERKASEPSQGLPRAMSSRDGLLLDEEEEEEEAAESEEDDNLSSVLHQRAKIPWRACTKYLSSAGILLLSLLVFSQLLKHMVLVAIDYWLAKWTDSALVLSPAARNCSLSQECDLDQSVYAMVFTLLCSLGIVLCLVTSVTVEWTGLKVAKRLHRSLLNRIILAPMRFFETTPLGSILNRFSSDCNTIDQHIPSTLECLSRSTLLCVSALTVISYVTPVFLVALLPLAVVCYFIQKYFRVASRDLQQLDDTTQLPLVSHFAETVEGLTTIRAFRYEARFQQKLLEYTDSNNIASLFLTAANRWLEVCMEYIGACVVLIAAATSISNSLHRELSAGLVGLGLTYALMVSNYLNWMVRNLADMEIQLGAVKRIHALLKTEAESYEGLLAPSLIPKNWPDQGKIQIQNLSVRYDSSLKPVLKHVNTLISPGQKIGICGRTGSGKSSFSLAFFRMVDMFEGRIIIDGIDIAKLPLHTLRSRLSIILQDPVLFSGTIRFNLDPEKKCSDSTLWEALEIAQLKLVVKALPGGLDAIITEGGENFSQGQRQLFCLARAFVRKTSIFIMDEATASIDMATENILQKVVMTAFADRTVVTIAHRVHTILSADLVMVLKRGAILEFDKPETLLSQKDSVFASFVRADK

Structure (SMILES) | % Inhibition (Imidazoline I2, Central) | % Inhibition [1] | % Inhibition (Rolipram) | % Inhibition (Potassium Channel (KATP)) | % Inhibition [2] | % Inhibition [3] | % Inhibition (Nicotinic Acetylcholine) | % Inhibition (Histamine, H1) | % Inhibition (Adrenergic α1A) | % Inhibition (Sodium Channel, Site 2) | % Inhibition (GABAA, Muscimol, Central) | % Inhibition (Phorbol Ester) | % Inhibition (Dopamine D1) | % Inhibition (Opiate μ(OP3, MOP)) | % Inhibition (Dopamine D2s) | % Inhibition (Adrenergic β2) | % Inhibition (Prostanoid EP4) | % Inhibition (Adrenergic β1) | % Inhibition (Adenosine A2A) | % Inhibition [5] | also measured
O=C(Nc1nnc(-c2ccc(F)cc2)o1)N1CCc2ccccc2C1 [MBX-4132] | 33% | 53% | 2% | 10% | −3% | 0% | −8% | 17% | 24% | 4% | 1% | 4% | −8% | 74% | 25% | 36% | 18% | −10% | 43% | 13% | % Inhibition (Sigma σ1): −4%; % Inhibition (Muscarinic M3): 16%; % Inhibition (Adrenergic α2A): 54%; % Inhibition [4]: 50%; % Inhibition (Muscarinic M2): 13%
O=C(Nc1nnc(-c2ccc(F)cc2)o1)c1ccc(Oc2ccccc2)nc1 [MBX-4237] | 14% |  | 1% |  | 9% |  | 8% |  |  | −3% | −6% | 2% |  |  |  |  |  |  |  | 25% | inhibition at 10 µM [1]: -4%; inhibition at 10 µM (Potassium Channel (KATP)): 9%; inhibition at 10 µM [3]: -8%; inhibition at 10 µM (Histamine, H1): 6%; inhibition at 10 µM (Adrenergic α1A): 6%; inhibition at 10 µM (Dopamine D1): 7%; inhibition at 10 µM (Opiate μ(OP3, MOP)): 12%; inhibition at 10 µM (Dopamine D2s): -3%; inhibition at 10 µM (Adrenergic β2): 15%; inhibition at 10 µM (Prostanoid EP4): -22%; inhibition at 10 µM (Adrenergic β1): -9%; inhibition at 10 µM (Adenosine A2A): 6%; inhibition at 10 µM (Sigma σ1): 32%; inhibition at 10 µM (Muscarinic M3): 11%; inhibition at 10 µM (Adrenergic α2A): -8%; inhibition at 10 µM [4]: 45%; inhibition at 10 µM (Muscarinic M2): 17%
O=C(Nc1nnc(-c2ccc(F)cc2)o1)c1ccc(OC2CCCCC2)cc1 [MBX-4292] | 10% | −7% | −8% | 8% | 0% | −4% | 1% | −8% | 9% | −2% | −4% | 2% | 17% | 4% | 1% | 6% | 28% | 3% | 11% | −1% | % Inhibition (Sigma σ1): 10%; % Inhibition (Muscarinic M3): 0%; % Inhibition (Adrenergic α2A): 3%; % Inhibition [4]: 77%; % Inhibition (Muscarinic M2): 0%
O=C(Nc1nnc(-c2ccc(F)cc2)o1)N1CC=C(C(F)(F)F)CC1 [MBX-4347] | −5% | −1% | −6% | 2% | 5% | 2% | −4% | 22% | −21% | −5% | 4% | 7% | 5% | −14% | −2% | 8% | −4% | 3% | 3% | 22% | % Inhibition (Sigma σ1): −2%; % Inhibition (Muscarinic M3): 2%; % Inhibition (Adrenergic α2A): 9%; % Inhibition [4]: 32%; % Inhibition (Muscarinic M2): 2%

Reference: patent publication US11505533B2, “Metabolically stable N-acylaminooxadiazoles useful as antibacterial agents” (MICROBIOTIX, INC., priority 2017, dated 2022)
